Strand notation (5' to 3'): a small letter for the sugar, then the base; units joined by * are phosphorothioate-linked, units joined directly phosphodiester-linked; [ ] holds rarer units or linkages, { } end groups; capitals alone tell only the bases. d = 2'-deoxy (DNA)
Tested on: human PBMC
Assay: Induction of cytokines and chemokines from human PBMC, comparison with CpG polynucleotides (Milliplex MAP kit)
Assay type: cell-based
Conditions: for Cytokine, IL-6 / Cytokine, IL-10 / Cytokine, MCP-1 / Cytokine, RANTES (CCL5): human PBMC culture supernatant, 48 h, final concentration 10 μg/mL; for Chemokine (MCP-1, RANTES) inducing activity towards human PBMC (in words) / Interleukin (cytokine) inducing activity towards human PBMC (in words): in comparison to LPS and MCC, Table 14
Method: LPS and MCC were included as positive controls as described in Example 7. PBMC were isolated from whole blood using standard Ficoll-Paque Plus (GE Healthcare Life Sciences, Baie d'Urfé, QC, Canada) gradient centrifugation, and placed in tissue culture plates at a concentration of 1×10^6 cells/mL (total volume: 1 mL in RPMI 1640 medium containing 10% heat-inactivated FBS (both from Wisent, St-Bruno, QC, Canada) and 50 μg/mL gentamycin sulfate (Sigma-Aldrich Canada, Oakville, ON, Canada). Non-DNA base-containing polynucleotide SEQ ID NOs: 1, 2, 3, 4, 5, 6, 7, 8 and 9 were added to separate wells to give a final concentration of 10 μg/mL, LPS was added to give a final concentration of 10 μg/mL, and the non-CpG 4010, CpG 2336, CpG 2429 and CpG 7909 polynucleotides, SEQ ID NOs: 31, 33, 35 and 34, respectively, were added to give a final concentration of 10 μg/mL.
The cells were then cultivated for 48 h. Cytokines (interleukins IL-6 and IL-10, chemokines MCP-1 and RANTES) in the culture supernatant were measured using a Milliplex™ MAP kit (Millipore Corporation, Billerica, Mass., USA) on a Bio-Plex 200 system (Bio-Rad Laboratories, Hercules, Calif., USA). MCP-1, also known as monocyte chemotactic protein, is an essential chemokine required for effective monocyte and myeloid dendritic cell activation and trafficking across endothelial and epithelial barriers (see for example Henkel et al, 2004 Ann. Neurol. 55:221-235), and RANTES (Regulated on Activation, Normal T cell Expressed and Secreted, now more commonly known as CCL5) is produced by memory phenotype T cells and is chemotactic for and activates T-cells (see for example Swanson et al, 2002 Immunity 17:605-615).

| Substance | Cytokine, IL-6 | Cytokine, IL-10 | Cytokine, MCP-1 | Cytokine, RANTES (CCL5) | Chemokine (MCP-1, RANTES) inducing activity towards human PBMC (in words) | Interleukin (cytokine) inducing activity towards human PBMC (in words) |
| --- | --- | --- | --- | --- | --- | --- |
| 5′-TCGTCGTTTTGTCGTTTTGTCGTT-3′ [SEQ ID NO: 34, reference compound] | 41 pg/mL | 2 pg/mL | 1270 pg/mL | 187 pg/mL | strong MCP-1 inducing activity | did not induce cytokines |
| 5′-TGCTGCTTTTTGCTGGCTTTTT-3′ (DNA dT*dG*dC*dT*dG*dC*dT*dT*dT*dT*dT*dG*dC*dT*dG*dG*dC*dT*dT*dT*dT*dT) [SEQ ID NO: 31, reference compound] | 43 pg/mL | 0 pg/mL | 343 pg/mL | 275 pg/mL | had chemokine-inducing activity | – |
| GIG (DNA GNG; Central inosine, sugar and linkages not given here, further chemistry not given here) [SEQ ID NO: 6, 5′-OH, 3′-OH non-DNA base-containing polynucleotide] | 0 pg/mL | 0 pg/mL | 48 pg/mL | 137 pg/mL | marginal or no | marginal or no |
| GNebG (DNA GNG; Central nebularine, sugar and linkages not given here, further chemistry not given here) [SEQ ID NO: 4, 5′-OH, 3′-OH non-DNA base-containing polynucleotide] | 1960 pg/mL | 28 pg/mL | 7000 pg/mL | 211 pg/mL | strong | strong |
| GGGTGGNebNebNeb (DNA GGGTGGNNN; Three 3' nebularines, sugar and linkages not given here, further chemistry not given here) [SEQ ID NO: 5, 5′-OH, 3′-OH non-DNA base-containing polynucleotide] | 845 pg/mL | 13 pg/mL | 3600 pg/mL | 202 pg/mL | strong | strong |
| 5′-TCGTCGTTTTCGGCGGCCGCCG-3′ (DNA dT*dC*dG*dT*dC*dG*dT*dT*dT*dT*dC*dG*dG*dC*dG*dG*dC*dC*dG*dC*dC*dG) [SEQ ID NO: 35, reference compound] | 42 pg/mL | 0 pg/mL | 906 pg/mL | 136 pg/mL | strong MCP-1 inducing activity | did not induce cytokines |
| 5′-GGGGACGACGTCGTCGGGGGG-3′ (DNA dG*dG*dG*dG*dA*dC*dG*dA*dC*dG*dT*dC*dG*dT*dC*dG*dG*dG*dG*dG*dG) [SEQ ID NO: 33, reference compound] | 9 pg/mL | 0 pg/mL | 573 pg/mL | 105 pg/mL | strong MCP-1 inducing activity | did not induce cytokines |
| GGGTGGIII (DNA GGGTGGNNN; Three 3' inosines, sugar and linkages not given here, further chemistry not given here) [SEQ ID NO: 7, 5′-OH, 3′-OH non-DNA base-containing polynucleotide] | 1 pg/mL | 0 pg/mL | 79 pg/mL | 71 pg/mL | marginal or no | marginal or no |
| GUG (DNA GNG; Central uracil in DNA, sugar and linkages not given here, further chemistry not given here) [SEQ ID NO: 8, 5′-OH, 3′-OH non-DNA base-containing polynucleotide] | 0 pg/mL | 0 pg/mL | 78 pg/mL | 78 pg/mL | marginal or no | marginal or no |
| GGGTGGUUU (DNA GGGTGGNNN; Three 3' uracils, sugar and linkages not given here, further chemistry not given here) [SEQ ID NO: 9, 5′-OH, 3′-OH non-DNA base-containing polynucleotide] | 133 pg/mL | 1 pg/mL | 914 pg/mL | 117 pg/mL | strong MCP-1 inducing activity | – |
